Source: PubChem BioAssay AID1259333 (Broad Institute, 2017)
Activity calls are given as the source filed them. The rule behind the calls is not given here; tested in parental BL2 cells.

Experiment: cell cytotoxicity, dose response, cytotoxicity control, CellTiter-Glo (AID 1259333);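 note: 0% = vehicle neutral controls and -100% = reference inhibitor positive controls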
Conditions: cytotoxicity, CellTiter-Glo ATP luminescence; at 3 µM (top of the series)

Compound | activity change, negative = cytotoxicity
O=C(Nc1ccccc1F)N1C[C@@H]2N[C@H](C1)C2c1ccc(/C=C/c2ccccc2)cc1 (some centres not stated) | 21.6% (inactive)

Same assay, conditions: cytotoxicity, CellTiter-Glo ATP luminescence; at 3.5 µM (top of the series)

Compound | activity change, negative = cytotoxicity
O=C1C=CC(=O)c2c(O)c(N3CCN(CCOCCO)CC3)c(Br)c(O)c21 | 104% (inactive)
Cc1[nH]c2ccccc2c1C(c1ccccn1)N1CCC(C(N)=O)CC1 (configuration not stated) | 29.7% (inactive)
C[C@H](CO)N1C[C@H](C)[C@H](CN(C)CC2CCCCC2)Oc2ccc(NC(=O)Nc3ccc(C(F)(F)F)cc3)cc2C1=O | 32.8% (inactive)

Same assay, conditions: cytotoxicity, CellTiter-Glo ATP luminescence; at 10 µM (top of the series)

Compound | activity change, negative = cytotoxicity
Cc1ccc(C2(C)NC(=O)N(CC(=O)Nc3cccnc3Cl)C2=O)cc1 (configuration not stated) | 21.9% (inactive)
N#C[C@H]1[C@@H](c2ccccc2-c2ccccc2)[C@@H](CO)N1C(=O)NC1CCCC1 | -17.1% (inactive)
CCC(=O)NC(c1ccccc1OC)c1ccc2cccnc2c1O (configuration not stated) | 40.2% (inactive)
COc1ccc(CN2CC3(CN(C(=O)Cc4ccccc4)C3)c3c([nH]c4cc(OC)ccc34)[C@H]2CO)cc1 | 21.8% (inactive)
N#C[C@@H]1[C@H](c2ccc(C#Cc3ccccc3F)cc2)[C@@H](CO)N1C(=O)C1CC1 | 38% (inactive)
O=C(C#Cc1ccccc1)c1ccccc1 | 43.8% (inactive)
O=C(COc1cccnc1[N+](=O)[O-])c1ccc(Cl)s1 | 33.6% (inactive)
C[C@H]1CN([C@@H](C)CO)C(=O)c2c(c3ccccc3n2C)-c2ccccc2CO[C@H]1CN(C)S(=O)(=O)c1ccc([N+](=O)[O-])cc1 | 75.5% (inactive)
c1ccc(CCSc2nccn2-c2ccccc2)cc1 | 33.3% (inactive)
CC(C)(C)n1cc(C(=O)c2ccc3ccccc3c2O)cn1 | 24.3% (inactive)
c1ccc(-c2ccc(-c3ccccn3)nn2)nc1 | -10.2% (inactive)
CC1(C)C(=O)C=C[C@@]2(C)C1C=C[C@]1(C)C2CC[C@@]2(C)[C@H](c3ccoc3)OC(=O)[C@H]3O[C@]321 (some centres not stated) | 15.6% (inactive)
c1cncc(C2=NCCC2)c1 | 36.6% (inactive)
N#C[C@H]1[C@H](c2ccc(C#Cc3ccccc3F)cc2)[C@H](CO)N1C(=O)C1CC1 | 91.9% (inactive)
C[C@H](CO)N1C[C@H](C)[C@H](CN(C)Cc2ccc(Oc3ccccc3)cc2)OCc2ccccc2-c2ccccc2C1=O | 15.4% (inactive)
CC1CNCCN1S(=O)(=O)c1cccc2cnccc12 (configuration not stated) | -37.9% (inactive)
COc1ccc(S(=O)(=O)N(C)C[C@H]2Oc3ccc(NC(=O)Nc4ccc(C(F)(F)F)cc4)cc3C(=O)N([C@@H](C)CO)C[C@H]2C)cc1 | 24.4% (inactive)
O=C1C=CC(=O)C2=C1C1c3ccccc3C2c2ccccc21 | 90.3% (inactive)
O=C(CNC(=O)c1ccco1)Nc1ccc2c(c1)OCCO2 | -6.17% (inactive)
Cn1c(CO)nc2cc(N)ccc21 | 34.6% (inactive)
C[C@@H]1CN([C@@H](C)CO)C(=O)c2c(c3ccccc3n2C)-c2ccccc2CO[C@H]1CN(C)Cc1cccc(C(=O)Nc2ccccc2N)c1 | 26.3% (inactive)
COc1ccc2cc(-c3cc(C(=O)O)c4ccccc4n3)ccc2c1 | 6.64% (inactive)
COc1cccc(OC)c1OCCNCC1COc2ccccc2O1 (configuration not stated) | 48.7% (inactive)
C[C@H]1CN([C@@H](C)CO)C(=O)c2c(c3ccccc3n2C)-c2ccccc2CO[C@H]1CN(C)C(=O)Nc1ccccc1C(F)(F)F | -4.57% (inactive)
CCc1cnc(N2[C@H](C#N)[C@@H](c3ccccc3C3=CCCC3)[C@@H]2CO)s1 | -4.08% (inactive)

Compound | activity change, negative = cytotoxicity
COc1ccc(Cl)cc1NC(=O)Nc1cc(C)nc2ccccc12 | 60.2% (inactive)
O=C(C[C@@H]1CC[C@H]2[C@@H](COC[C@@H](O)CN2Cc2cc(F)ccc2F)O1)NCc1ccc(Oc2ccccc2)cc1 | 14.2% (inactive)
C[C@H](CO)N1C[C@H](C)[C@H](CN(C)C(=O)C2CCOCC2)Oc2ncc(C#CCc3ccccc3)cc2C1=O | 0.181% (inactive)
COc1ccc(C(=O)CCN2CCc3cc(OC)c(OC)cc3C2)cc1 | 22.2% (inactive)
Fc1ccccc1/C=C1\CCCC2=C1Nc1nnnn1C2c1ccccc1F (configuration not stated) | 12.3% (inactive)
Cc1noc(C)c1S(=O)(=O)Nc1ccc2c(c1)C(=O)N([C@@H](C)CO)C[C@@H](C)[C@@H](CN(C)C(=O)Nc1cccc3ccccc13)OCCCC[C@H](C)O2 | 25.9% (inactive)
CCc1cc2c(COC(=O)c3cc(S(=O)(=O)N4CCOCC4)ccc3F)cc(=O)oc2cc1O | 64% (inactive)
O=C(C[C@H]1CC[C@@H]2[C@H](COC[C@H](O)CN2Cc2cc(F)ccc2F)O1)NCc1ccc(Oc2ccccc2)cc1 | 17% (inactive)
Oc1ccc2c(c1)OCC1(O)Cc3cc(O)c(O)cc3C21 (configuration not stated) | 8.98% (inactive)
C[C@@H]1CN([C@@H](C)CO)C(=O)c2ccccc2-c2ccccc2CO[C@@H]1CN(C)C(=O)c1cc(Cl)cc(Cl)c1 | 38.8% (inactive)
COc1cccc(/C=N/Nc2ccc(C(=O)O)cc2)c1O | 5.24% (inactive)
COc1ccc(CN2CC3(CN(S(=O)(=O)c4ccc(C)cc4)C3)c3c([nH]c4cc(OC)ccc34)[C@H]2CO)cc1 | 20.2% (inactive)
C[C@@H]1CN([C@@H](C)CO)C(=O)Cc2cc(NS(=O)(=O)c3ccc(F)cc3)ccc2O[C@H]1CN(C)Cc1ccc(C(F)(F)F)cc1 | 20.6% (inactive)
CCCn1c(NC(=O)c2cccc(S(=O)(=O)N3CCCC3)c2)nc2ccccc21 | 12.5% (inactive)
O=C1CCCCC1Sc1nnc(-c2ccc3c(c2)OCO3)o1 (configuration not stated) | 25.1% (inactive)
Cc1ccc2nc(C(F)(F)F)c(C#N)c(N)c2c1 | 1.7% (inactive)
CCCCC1C(=O)NC(=S)N(C)C1=O (configuration not stated) | 33.7% (inactive)
COc1ccc(CN(CCC(c2ccc(F)cc2)C2CCOC(C)(C)C2)C(=O)c2ccco2)cc1 (configuration not stated) | 263% (inactive)
O=C1C[C@H](c2ccccc2)C(=O)N[C@@H](c2ccccc2)C/C=C\C[C@@H](c2ccccc2)N1 | 72.2% (inactive)
O=C(C1CCCC1)N1CC(=O)N2[C@@H](CO)[C@@H](c3ccc(C#CCc4ccccc4)cc3)[C@@H]2C1 | 53.6% (inactive)
Nc1nc(=O)c2ccccc2s1 | 19.7% (inactive)
CC(=O)c1cc(-c2ccccc2)n(CC(=O)NCc2cccs2)c1C | 2.3% (inactive)
COC1=CC(=O)c2c(ccc3ncnc(N)c23)C1=O | 44.6% (inactive)
c1ccc(-c2nnc(-c3ccccn3)nn2)nc1 | 22.8% (inactive)
C(=Cc1c[nH]c2ccccc12)c1nccc2ccccc12 | 33.1% (inactive)

Compound | activity change, negative = cytotoxicity
C[C@H](CO)N1C[C@H](C)[C@@H](CN(C)Cc2ccc(Cl)c(Cl)c2)OCCCC[C@H](C)Oc2ccc(NS(=O)(=O)c3cccs3)cc2C1=O | 9.11% (inactive)
O=C1C(=Cc2ccccc2[N+](=O)[O-])Cc2ccccc21 | 161% (inactive)
CCCNC(=O)N1[C@H](CO)[C@H](c2ccc(-c3cccc(OC)c3)cc2)[C@@H]1C#N | 27% (inactive)
CC(C)OC(=O)CC1C(=O)NCCN1C(=S)NC(=O)c1cccs1 (configuration not stated) | 19.9% (inactive)
COc1ccc(C(=O)/C=C/C(=O)N(CC(=O)NC2CCCCC2)Cc2ccc(F)cc2)c(O)c1 | 46.2% (inactive)
O=c1cc(-c2ccc(O)cc2)oc2ccc3ccccc3c12 | 20.1% (inactive)
CS(=O)(=O)c1ccc(C(=O)OCC(=O)NC(=O)C2CCCCC2)cc1[N+](=O)[O-] | 42.9% (inactive)
Cn1cnc(S(=O)(=O)N2C[C@@H]3N[C@H](C2)C3c2ccc(-c3ccccc3F)cc2)c1 (some centres not stated) | 36.7% (inactive)
CCN1C(=O)C(CC(=O)Nc2ccc(OC)cc2)N(CCc2ccc(F)cc2)C1=S (configuration not stated) | 24.7% (inactive)
CC12CC[C@H]3[C@@H](CCC4(O)C[C@H](O)CCC34/C=N/NC(=O)Cc3ccccc3)C1(O)CCC2C1=CC(=O)OC1 (some centres not stated) | 25% (inactive)
Cc1nc(C)c(C(=O)Nc2ncc([N+](=O)[O-])s2)o1 | 29.6% (inactive)
O=C(CNCCO)N1N=C(c2cccs2)CC1c1cccs1 (configuration not stated) | 18.9% (inactive)
Cc1ccc(OC(=O)N(C)C[C@@H]2OCc3ccccc3-c3c(n(C)c4ccccc34)C(=O)N([C@@H](C)CO)C[C@H]2C)cc1 | 5.02% (inactive)
CC(C)(C)NCC(=Cc1ccccc1)C(=O)c1ccccc1 | 103% (inactive)
O=C(C[C@@H]1C[C@H]2c3cc(NC(=O)Nc4ccc(C(F)(F)F)cc4)ccc3O[C@H]2[C@H](CO)O1)NCc1cc(F)ccc1F | 31.2% (inactive)
COc1cccc(S(=O)(=O)N(C)C[C@H]2OCc3ccccc3-c3c(n(C)c4ccccc34)C(=O)N([C@H](C)CO)C[C@@H]2C)c1 | 20.3% (inactive)
O=C1CC(c2ccc3c(c2)OCO3)Sc2nc3ccccc3n21 (configuration not stated) | 31.6% (inactive)
O=C(/C=C/c1cccs1)c1ccc(N2CCOCC2)cc1 | 23.6% (inactive)
c1ccc(OCCSc2nnc3sc4ccccc4n23)cc1 | -14.5% (inactive)
CC(=NNc1ccc2ccccc2n1)c1ccccc1O | -29.4% (inactive)
Cc1ccc(S(=O)(=O)CCC(=O)N(CCCN2CCOCC2)c2nc3ccccc3s2)cc1 | 29.5% (inactive)
O=C(Nc1ccc2c(c1)OCCO2)C1CCCC1 | 9.1% (inactive)
CC1CCCC=CC2CC(OC(=O)CN(C)C)CC2C(O)C=CC(=O)O1 (configuration not stated) | 53.7% (inactive)
